{"source": "patent EP0080271A1", "about": "“Indomethacin phenyl ester derivatives, their use, and compositions containing them” (priority 1981, dated 1983)", "key": {"rats [1]": {"tested_on": "rats", "assay": "intestinal ulcers and survival after oral administration for 5 days", "type": "in vivo", "conditions": "group of 12 rats, oral for 5 days, daily dose 28 µM; for ulceration (%): percentage of surviving animals with ulcers", "experimental": "Each compound listed in Table 5 was administered orally to a group of 12 rats for 5 days, and the number of intestinal ulcers was determined. The degree of ulceration was calculated as a percentage of number of […] surviving animals with respect to the number of surviving animals."}, "rats [2]": {"tested_on": "rats", "assay": "ulceration activity: ulcer index 5 hours after oral administration", "type": "in vivo", "conditions": "sacrificed 5 hours after administration", "experimental": "(§1) Secondly, in order to assess ulceration activity, various compounds (listed in Table 2) were administered orally to a group of rats. The animals were sacrificed 5 hours after administration, and the ulcer index was determined. Compounds were also administered orally to a group of rats for 1 week, and the number of intestinal ulcers was determined. The same compounds were administered orally to a group of rats, the ulcer index being determined by observing the stomach 3 hours after administration."}, "[3]": {"tested_on": "edema induced by carrageenin in rat", "assay": "inhibition of edema induced by carrageenin in rat (hind paw volume)", "type": "in vivo", "conditions": "oral 1 hour before carrageenin injection; for inhibition (%): 3 hours after injection; for edema (%): hind paw volume 3 hours after injection", "experimental": "Firstly, in order to assess anti-inflammatory activity, the inhibition of edema induced by carrageenin in rat was studied. Various compounds (listed in Table 1) were administered orally to a group of rats just 1 hour before a carrageenin injection, and the hind paw volume was measured 3 hours after injection."}, "[4]": {"assay": "LD50 by oral administration in mice", "conditions": "mouse, in vivo, mice of the stock ddy", "experimental": "LD50 of this compound, determined by means of oral administration in mice of the stock ddy, was 200 mg/kg."}, "rats [5]": {"tested_on": "rats", "assay": "number of intestinal ulcers after oral administration for 1 week", "type": "in vivo", "conditions": "oral for 1 week, dose 15 µM", "experimental": "as §1"}, "rats [6]": {"tested_on": "rats", "assay": "ulcer index, stomach observed 3 hours after oral administration", "type": "in vivo", "conditions": "stomach 3 hours after administration, dose 0.056 mM", "experimental": "as §1"}, "rats [7]": {"tested_on": "rats", "type": "in vivo", "conditions": "group of 10 rats, oral, stomach 24 hours after administration, dose 0.060 mM", "experimental": "Each compound listed in Table 6 was administered orally to a group of 10 rats and the ulcer index was determined by observing the stomach 24 hours after administration."}, "serum esterase": {"tested_on": "serum esterase", "conditions": "reported in Ceskoslovenska Farmacie 26 (1977) 6277; cited from earlier work"}, "[8]": {"conditions": "versus indomethacin plus salicyl salicylate"}}, "note": "Where two headings read alike, the source gives them in different places."}
{"smiles": "COc1ccc2c(c1)c(CC(=O)OCC(=O)O)c(C)n2C(=O)c1ccc(Cl)cc1", "note": "[Acemethacin, reference compound]", "values": [{"measurement": "number of intestinal ulcers", "setting": "rats [1]", "result": 11.0}, {"measurement": "ulceration (%)", "setting": "rats [1]", "result": 100, "unit": "%"}]}
{"smiles": "COc1ccc2c(c1)c(CC(=O)Oc1ccccc1C(=O)OCc1ccccc1)c(C)n2C(=O)c1ccc(Cl)cc1", "note": "[Example 1, 2-Benzyloxycarbonylphenyll-(p-chlorobenzoyl)-5-methoxy-2-methylindole-3-acetate]", "values": [{"measurement": "ulcer index (mm)", "setting": "rats [2]; dose 0.030 mM", "result": "0.1 ± 0.1", "unit": "mm"}]}
{"smiles": "CCOC(=O)c1ccccc1OC(=O)Cc1c(C)n(C(=O)c2ccc(Cl)cc2)c2ccc(OC)cc12", "note": "[Example 2, 2-Ethoxycarbonylphenyl 1-(p-chlorobenzoyl)-5-methoxy-2-methylindole-3-acetate]", "values": [{"measurement": "inhibition (%)", "setting": "[3]; dose 0.015 mM", "result": 31.8, "unit": "%"}, {"measurement": "inhibition (%)", "setting": "[3]; dose 0.030 mM", "result": 34.7, "unit": "%"}, {"measurement": "edema (%)", "setting": "[3]; dose 0.015 mM", "result": "53.3 ± 8.7", "unit": "%"}, {"measurement": "edema (%)", "setting": "[3]; dose 0.030 mM", "result": "52.9 ± 3.6", "unit": "%"}, {"measurement": "LD50", "setting": "[4]", "result": 200, "unit": "mg/kg"}, {"measurement": "ulcer index (mm)", "setting": "rats [2]; dose 0.030 mM", "result": "0.2 ± 0.1", "unit": "mm"}]}
{"smiles": "COc1ccc2c(c1)c(CC(=O)Oc1ccccc1C(=O)OC(C)(C)C)c(C)n2C(=O)c1ccc(Cl)cc1", "note": "[Example 3, 2-t-Butoxycarbonylphenyl 1-(p-chlorobenzoyl)-5-methoxy-2-methlindole-3-acetate]", "values": [{"measurement": "inhibition (%)", "setting": "[3]; dose 0.015 mM", "result": 35.8, "unit": "%"}, {"measurement": "inhibition (%)", "setting": "[3]; dose 0.030 mM", "result": 34.7, "unit": "%"}, {"measurement": "edema (%)", "setting": "[3]; dose 0.015 mM", "result": "52.0 ± 7.5", "unit": "%"}, {"measurement": "edema (%)", "setting": "[3]; dose 0.030 mM", "result": "52.9 ± 3.6", "unit": "%"}, {"measurement": "ulcer index (mm)", "setting": "rats [2]; dose 0.030 mM", "result": "0.2 ± 0.1", "unit": "mm"}]}
{"smiles": "COc1ccc2c(c1)c(CC(=O)Oc1ccccc1C(=O)Oc1ccccc1C(=O)OCc1ccccc1)c(C)n2C(=O)c1ccc(Cl)cc1", "note": "[Example 4, 2-(2-Benzyloxycarbonylphenyl)oxycarbonylphenyl 1-(p-chlorobenzoyl)-5-methoxy-2-methylindole-3-acetate]", "values": [{"measurement": "ulcer index (mm)", "setting": "rats [2]; dose 0.030 mM", "result": "0.4 ± 0.3", "unit": "mm"}]}
{"smiles": "COc1ccc2c(c1)c(CC(=O)Oc1ccccc1C(=O)Oc1ccccc1C(=O)O)c(C)n2C(=O)c1ccc(Cl)cc1", "note": "[Example 5, 2-(2-Hydroxycarbonylphenyl)oxycarbonylphenyll-(p-chlorobenzoyl)-5-methoxy-2-methylindole-3-acetate]", "values": [{"measurement": "inhibition (%)", "setting": "[3]; dose 0.015 mM", "result": 42.7, "unit": "%"}, {"measurement": "inhibition (%)", "setting": "[3]; dose 0.030 mM", "result": 48.7, "unit": "%"}, {"measurement": "edema (%)", "setting": "[3]; dose 0.015 mM", "result": "46.4 ± 4.8", "unit": "%"}, {"measurement": "edema (%)", "setting": "[3]; dose 0.030 mM", "result": "41.4 ± 5.3", "unit": "%"}, {"measurement": "ulcer index (mm)", "setting": "rats [2]; dose 0.030 mM", "result": "0.6 ± 0.3", "unit": "mm"}, {"measurement": "number of ulcers", "setting": "rats [5]", "result": "0.5 ± 2.0"}, {"measurement": "inhibition (%)", "setting": "rats [5]; [8]", "result": 98.4, "unit": "%"}, {"measurement": "Ulcer index", "setting": "rats [6]", "result": "3.7 ± 1.3"}, {"measurement": "inhibition (%)", "setting": "rats [6]; [8]", "result": 86.0, "unit": "%"}, {"measurement": "number of intestinal ulcers", "setting": "rats [1]", "result": "2.4 ± 0.6"}, {"measurement": "ulceration (%)", "setting": "rats [1]", "result": 75, "unit": "%"}]}
{"smiles": "COc1ccc2c(c1)c(CC(=O)Oc1ccccc1C(=O)O)c(C)n2C(=O)c1ccc(Cl)cc1", "note": "[Indomethacin salicylic ester, 2-hydroxycarbonylphenyll-(p-chlorobenzoyl)-5-methoxy-2-methylindole-3-acetate]", "values": [{"measurement": "inhibition (%)", "setting": "[3]; dose 0.015 mM", "result": 49.4, "unit": "%"}, {"measurement": "edema (%)", "setting": "[3]; dose 0.015 mM", "result": "41.0 ± 3.5", "unit": "%"}, {"measurement": "number of intestinal ulcers", "setting": "rats [1]", "result": "5.0 ± 0.4"}, {"measurement": "ulceration (%)", "setting": "rats [1]", "result": 100, "unit": "%"}, {"measurement": "ulcer index (mm)", "setting": "rats [7]", "result": "7.1 ± 1.6", "unit": "mm"}, {"measurement": "inhibition (%)", "setting": "rats [7]; versus indomethacin", "result": 73.2, "unit": "%"}, {"measurement": "hydrolysis by serum esterase", "setting": "serum esterase", "result": "hydrolysis by serum esterase"}]}
{"smiles": "COc1ccc2c(c1)c(CC(=O)O)c(C)n2C(=O)c1ccc(Cl)cc1", "note": "[Indomethacin]", "values": [{"measurement": "inhibition (%)", "setting": "[3]; dose 0.015 mM", "result": 32.2, "unit": "%"}, {"measurement": "inhibition (%)", "setting": "[3]; dose 0.030 mM", "result": 53.5, "unit": "%"}, {"measurement": "edema (%)", "setting": "[3]; dose 0.015 mM", "result": "54.9 ± 6.5", "unit": "%"}, {"measurement": "edema (%)", "setting": "[3]; dose 0.030 mM", "result": "37.7 ± 7.2", "unit": "%"}, {"measurement": "ulcer index (mm)", "setting": "rats [2]; dose 0.030 mM", "result": "5.9 ± 2.5", "unit": "mm"}, {"measurement": "ulcer index (mm)", "setting": "rats [2]; dose 21.5 mg/kg (0.060 mM)", "result": "57.9 ± 6.6", "unit": "mm"}, {"measurement": "number of survival animals", "setting": "rats [1]", "result": 0}, {"measurement": "ulcer index (mm)", "setting": "rats [7]", "result": "26.5 ± 6.2", "unit": "mm"}]}
